Drawing on patent US8765744B2, “Azaspirohexanones” (Boehringer Ingelheim International GmbH, priority 2010, dated 2014), this text covers IC50 for 2 compounds.

This assay has as its target 11β-HSD1 (Homo sapiens (Human), UniProt P28845). The settings on record: read-out: Inhibitory activity on 11β-HSD 1, IC50; human liver microsomes; 1 hour at 37° C.; NADPH 200 μM, cortisone 80 nM; HTRF cortisol detection. (In general: Liver microsomes are a subcellular fraction often used to study metabolism.)

A value given as a limit tells only on which side of the number the result lay.

Sequence of 11β-HSD1 (P28845 whole entry): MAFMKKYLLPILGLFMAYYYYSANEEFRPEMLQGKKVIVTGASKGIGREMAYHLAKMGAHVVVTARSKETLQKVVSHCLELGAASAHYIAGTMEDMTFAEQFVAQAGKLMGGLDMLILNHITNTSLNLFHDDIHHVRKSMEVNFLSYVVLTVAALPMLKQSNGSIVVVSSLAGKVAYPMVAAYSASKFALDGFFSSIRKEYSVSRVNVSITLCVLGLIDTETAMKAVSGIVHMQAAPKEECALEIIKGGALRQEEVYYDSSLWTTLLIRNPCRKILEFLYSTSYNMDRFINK
Protocol: The biological properties (inhibitory activity on 11β-hydroxysteroid dehydrogenase 1) of the new compounds may be investigated as follows:
Briefly, compounds are incubated for 1 hour at 37° C. in Tris buffer (20 mM tris, 5 mM EDTA, pH 6.0) containing NADPH (200 μM) and cortisone (80 nM). Cortisol generated in the reaction is then detected with a competitive immunoassay, involving two HTRF conjugates: cortisol linked to XL665 and anti-cortisol antibody labeled with Europium cryptate. The incubation period for detection reaction is typically 2 hours. […] The ratio of the two emission signals is then calculated (Em665*10000/Em615). […] Each assay also contains a calibration curve with cortisol to transform the fluorescent data into cortisol concentrations. Percent inhibition (% CTL) of each compound is determined relative to the carbenoxolone signal and IC50 curves are generated.

The IC50 is the midpoint of a concentration-inhibition curve. Consider `C[C@@H](c1ccc(-c2ccc(C(=O)N(C)C)nc2)cc1)N1CCC2(CCC3(CC2)OCC(C)(C)CO3)OC1=O` [Example 17, 5-{4-[(S)-1-(12,12-Dimethyl-2-oxo-1,10,14-trioxa-3-aza-dispiro[5.2.5.2]hexadec-3-yl)-ethyl]-phenyl}-pyridine-2-carboxylic acid dimethylamide], for which the IC50 was more than 10 µM.

Consider `C[C@@H](c1ccc(-c2ccn(C)c(=O)c2)cc1)N1CCC2(CCC3(CC2)OCC(C)(C)CO3)OC1=O` [Example 16, 12,12-Dimethyl-3-{(S)-1-[4-(1-methyl-2-oxo-1,2-dihydro-pyridin-4-yl)-phenyl]-ethyl}-1,10,14-trioxa-3-aza-dispiro[5.2.5.2]hexadecan-2-one], for which the IC50 was more than 10 µM.
